Experimental data taken from US20240115744A1, “FIBRIN-BINDING COMPOUNDS FOR IMAGING AND TREATMENT” (Collagen Medical, LLC, priority 2019, published 2024).
Where two headings read alike, the source gives them in different places. Where a SMILES comes first, the peptide text is derived from it. Bridges are numbered along the chain shown (N, C = ends). [ ]: non-standard residue; d: D form. The star is where a group is joined. Tyr(3-Cl) = N[C@@H](Cc1ccc(O)c(Cl)c1)C(=O)O; Nicotinoyl(6-F) = O=C(c1ccc(F)nc1)*; Hyp = O=C(O)[C@@H]1C[C@@H](O)CN1

Legend:
[1] = molecular target: T1, soluble fibrin fragment DD(E) (Homo sapiens, UniProt P02671+P02675+P02679, DEL433-453); test: Fluorescence polarization DD(E) binding/displacement assay; conditions: for Ki: displacement of TRITC-labelled peptide from DD(E), TBS·Ca with 2% DMSO, estimated uncertainty ±10%; for Kd: sub-micromolar affinity, read-out: affinity (Kd) to fibrin as assessed by DD(E) assay
T1 construct: partial plasmin digestion of purified fibrin gel followed by size-exclusion chromatographic purification; made in house
T1 sequence (P02671 130-216 limits assumed, stated change not applied): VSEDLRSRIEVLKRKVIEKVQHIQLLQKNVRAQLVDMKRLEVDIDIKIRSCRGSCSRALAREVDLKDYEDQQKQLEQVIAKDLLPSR
T1 sequence (P02675 164-491 limits assumed, stated change not applied): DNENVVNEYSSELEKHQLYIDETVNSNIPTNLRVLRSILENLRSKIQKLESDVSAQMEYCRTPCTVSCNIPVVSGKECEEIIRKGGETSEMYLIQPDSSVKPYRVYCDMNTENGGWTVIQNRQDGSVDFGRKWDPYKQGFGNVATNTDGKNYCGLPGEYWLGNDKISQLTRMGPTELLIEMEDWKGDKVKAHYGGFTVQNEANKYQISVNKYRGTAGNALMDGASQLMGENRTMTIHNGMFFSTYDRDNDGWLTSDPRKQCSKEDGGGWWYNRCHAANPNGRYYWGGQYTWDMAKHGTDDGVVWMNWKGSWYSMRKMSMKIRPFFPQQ
T1 sequence (P02679 114-432 limits assumed, stated change not applied): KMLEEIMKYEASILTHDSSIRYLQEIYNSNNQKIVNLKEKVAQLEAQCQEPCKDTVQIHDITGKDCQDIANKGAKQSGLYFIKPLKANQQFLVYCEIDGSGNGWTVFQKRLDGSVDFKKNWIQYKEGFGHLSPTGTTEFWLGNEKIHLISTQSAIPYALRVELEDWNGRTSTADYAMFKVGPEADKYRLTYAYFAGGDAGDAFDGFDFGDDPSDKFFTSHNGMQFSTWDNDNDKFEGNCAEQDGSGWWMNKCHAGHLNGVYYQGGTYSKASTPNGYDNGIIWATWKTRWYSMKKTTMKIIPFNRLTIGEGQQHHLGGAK
T1 sequence (P02671 36-97 partner limits assumed): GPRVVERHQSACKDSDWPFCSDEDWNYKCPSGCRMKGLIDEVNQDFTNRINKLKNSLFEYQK
T1 sequence (P02675 45-152 partner limits assumed): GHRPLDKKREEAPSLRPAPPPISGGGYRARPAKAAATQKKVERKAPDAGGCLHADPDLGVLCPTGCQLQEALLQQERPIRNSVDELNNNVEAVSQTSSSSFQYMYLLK
T1 sequence (P02679 27-88 partner limits assumed): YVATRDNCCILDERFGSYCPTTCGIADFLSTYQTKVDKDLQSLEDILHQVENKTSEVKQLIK
Experimental: DD(E) was prepared using a published procedure which involved partial plasmin digestion of purified fibrin gel followed by size-exclusion chromatographic purification, and purity was assessed by SDS-PAGE. Peptides modified at the N-terminus with tetramethyl-rhodamine (TRITC) dye bind to DD(E). Direct fluorescent peptide binding to DD(E) was measured by a fluorescence polarization (FP) assay. The anisotropy (robs) of the fluorescently labeled peptides binding to DD(E) (0-20 μM) was measured in Tris buffered saline (50 mM Tris, 100 mM NaCl and 2 mM CaCl2) at fixed compound concentrations, and the data were fit to a single site model (Eq. 1) to obtain the dissociation constant (Kd) for the DD(E)·(fluorescent peptide) complex.
Displacement of the fluorescent peptide by non-fluorescent compound was measured to determine inhibition constants (Ki). In the presence of an inhibitor, an apparent dissociation constant for the fluorescent compound (Kd app) is determined using Eq. 2. The inhibition constant Ki is related to Kd app by Eq. 2, wherein Kd is the true dissociation constant of the fluorescent compound measured in the absence of inhibitor.
Non-labeled peptide binding to DD(E) was measured by a compound displacement assay, where a DD(E)/Fl·pep complex formed at fixed concentrations of DD(E) and Fl·pep was titrated with increasing concentrations of unlabeled compound. The compound was assayed by mixing DD(E) (4.0 μM, 10 μL) and TRITC (0.1 μM, 10 μL) with increasing concentrations of competing peptide (0.4-100 μM, 20 μL) in TBS·Ca with 2% DMSO in a final volume of 40 μL. Fluorescence polarization of the samples (10 μL, triplicate wells) in ascending concentrations was measured in a 384-well microplate (Corning flat black plate), using a Tecan Infinite 200 Pro fluorescence microplate reader equipped with fluorescence polarization filters, a 535 nm excitation filter and a 590 nm fluorescence emission filter. Average polarization (mP units) readings for each dilution of the compound of interest was converted to anisotropy (r) using Eq. 3.
The data defined a displacement curve (robs vs. [Peptide]), and the inhibitory binding constant, Ki, was determined by least squares fitting of the data (estimated uncertainty in Ki±10%). See Table 2 for the Ki values for the Compounds from Example 1.

[2] = molecular target: soluble fibrin fragment DD(E); test: fluorescence polarization, displacement of the TRITC peptide from DD(E)

Row | Ki ([1]; read-out: Ki) | Kd [1] | Molecule | further results
1 | 1010 nM | – | CC[C@H](C)[C@H](NC(=O)[C@H](Cc1ccc(O)cc1)NC(=O)[C@@H]1CSSC[C@H](NC(=O)[C@@H](CCC(=O)O)NC(=O)[C@@H](Cc2ccc(O)cc2)NC(=O)c2ccc(F)nc2)C(=O)N2C[C@H](O)C[C@H]2C(=O)N[C@@H](Cc2ccc(O)c(Cl)c2)C(=O)NCC(=O)N[C@@H](CC(C)C)C(=O)N1)C(=O)N[C@H](CCC(N)=O)C(N)=O [Compound 11, -y-e-C-Hyp-Y(3-Cl)-G-L-C-Y-I-q-] ({Nicotinoyl(6-F)}-[dY][dE]C[Hyp][Tyr(3-Cl)]GLCYI[dQ]-NH2; disulfide 3-8) | –
2 | 1200 nM | – | CC[C@H](C)[C@H](NC(=O)[C@H](Cc1ccc(O)cc1)NC(=O)[C@@H]1CSSC[C@H](NC(=O)[C@@H](CCC(=O)O)NC(=O)[C@H](Cc2ccc(O)cc2)NC(=O)c2ccc(F)nc2)C(=O)N2C[C@H](O)C[C@H]2C(=O)N[C@@H](Cc2ccc(O)c(Cl)c2)C(=O)N[C@@H](CC(=O)O)C(=O)N[C@@H](CC(C)C)C(=O)N1)C(=O)N[C@@H](CCC(N)=O)C(N)=O [Compound 12, -Y-e-C-Hyp-Y(3-Cl)-D-L-C-Y-I-Q-] ({Nicotinoyl(6-F)}-Y[dE]C[Hyp][Tyr(3-Cl)]DLCYIQ-NH2; disulfide 3-8) | –
3 | 1250 nM | – | CC[C@H](C)[C@H](NC(=O)[C@H](Cc1ccc(O)cc1)NC(=O)[C@@H]1CSSC[C@H](NC(=O)[C@@H](CCC(=O)O)NC(=O)[C@H](Cc2ccc(O)cc2)NC(=O)c2ccc(F)nc2)C(=O)N2C[C@H](O)C[C@H]2C(=O)N[C@@H](Cc2ccc(O)c(Cl)c2)C(=O)NCC(=O)N[C@@H](CC(C)C)C(=O)N1)C(=O)N[C@H](CCC(N)=O)C(N)=O [Compound 13, -Y-e-C-Hyp-Y(3-Cl)-G-L-C-Y-I-q-] ({Nicotinoyl(6-F)}-Y[dE]C[Hyp][Tyr(3-Cl)]GLCYI[dQ]-NH2; disulfide 3-8) | –
4 | 950 nM | – | CC[C@H](C)[C@H](NC(=O)[C@H](Cc1ccc(O)cc1)NC(=O)[C@@H]1CSSC[C@H](NC(=O)[C@@H](CCC(=O)O)NC(=O)[C@H](Cc2ccc(O)cc2)NC(=O)c2ccc(F)nc2)C(=O)N2C[C@H](O)C[C@H]2C(=O)N[C@@H](Cc2ccc(O)c(Cl)c2)C(=O)NCC(=O)N[C@@H](CC(C)C)C(=O)N1)C(=O)N[C@H](CC(C)C)C(N)=O [Compound 10, -Y-e-C-Hyp-Y(3-Cl)-G-L-C-Y-I-1-] ({Nicotinoyl(6-F)}-Y[dE]C[Hyp][Tyr(3-Cl)]GLCYI[dL]-NH2; disulfide 3-8) | –
5 | 2760 nM | – | CC[C@H](C)[C@H](NC(=O)[C@H](Cc1ccc(O)cc1)NC(=O)[C@@H]1CSSC[C@H](NC(=O)[C@@H](CCC(=O)O)NC(=O)[C@H](Cc2ccc(O)cc2)NC(=O)c2ccc(F)nc2)C(=O)N2C[C@H](O)C[C@H]2C(=O)N[C@@H](Cc2ccc(O)c(Cl)c2)C(=O)N[C@H](CC(=O)O)C(=O)N[C@@H](CC(C)C)C(=O)N1)C(=O)N[C@@H](CCC(N)=O)C(N)=O [Compound 14, -Y-e-C-Hyp-Y(3-Cl)-d-L-C-Y-I-Q-] ({Nicotinoyl(6-F)}-Y[dE]C[Hyp][Tyr(3-Cl)][dD]LCYIQ-NH2; disulfide 3-8) | –

Further lines, the molecule ahead of its results:

Row | Molecule | Ki ([1]; read-out: Ki) | Kd [1] | further results
6 | CC[C@H](C)[C@H](NC(=O)[C@H](Cc1c[nH]cn1)NC(=O)[C@@H]1CSSC[C@H](NC(=O)[C@@H](CCC(=O)O)NC(=O)[C@@H](Cc2ccc(O)cc2)NC(=O)c2ccc(F)nc2)C(=O)N2C[C@H](O)C[C@H]2C(=O)N[C@@H](Cc2ccc(O)c(Cl)c2)C(=O)NCC(=O)N[C@@H](CC(C)C)C(=O)N1)C(=O)N[C@@H](CCC(N)=O)C(N)=O [Compound 2, -y-e-C-Hyp-Y(3-Cl)-G-L-C-H-I-Q-] ({Nicotinoyl(6-F)}-[dY][dE]C[Hyp][Tyr(3-Cl)]GLCHIQ-NH2; disulfide 3-8) | 70 nM | < 600 nM | –
7 | CC[C@H](C)[C@H](NC(=O)[C@H](Cc1c[nH]cn1)NC(=O)[C@@H]1CSSC[C@H](NC(=O)[C@@H](CCC(=O)O)NC(=O)[C@H](Cc2ccc(O)cc2)NC(=O)c2ccc(F)nc2)C(=O)N2C[C@H](O)C[C@H]2C(=O)N[C@@H](Cc2ccc(O)c(Cl)c2)C(=O)NCC(=O)N[C@@H](CC(C)C)C(=O)N1)C(=O)N[C@@H](CCC(N)=O)C(N)=O [Compound 4, -Y-e-C-Hyp-Y(3-Cl)-G-L-C-H-I-Q-] ({Nicotinoyl(6-F)}-Y[dE]C[Hyp][Tyr(3-Cl)]GLCHIQ-NH2; disulfide 3-8) | 180 nM | < 600 nM | –
8 | CC[C@H](C)[C@H](NC(=O)[C@H](Cc1c[nH]cn1)NC(=O)[C@@H]1CSSC[C@H](NC(=O)[C@@H](CCC(=O)O)NC(=O)[C@H](Cc2ccc(O)cc2)NC(=O)c2ccc(F)nc2)C(=O)N2C[C@H](O)C[C@H]2C(=O)N[C@@H](Cc2ccc(O)c(Cl)c2)C(=O)NCC(=O)N[C@@H](CC(C)C)C(=O)N1)C(=O)N[C@H](CCC(N)=O)C(N)=O [Compound 5, -Y-e-C-Hyp-Y(3-Cl)-G-L-C-H-I-q-] ({Nicotinoyl(6-F)}-Y[dE]C[Hyp][Tyr(3-Cl)]GLCHI[dQ]-NH2; disulfide 3-8) | 230 nM | < 600 nM | –
9 | CC[C@H](C)[C@H](NC(=O)[C@H](Cc1c[nH]cn1)NC(=O)[C@@H]1CSSC[C@H](NC(=O)[C@@H](CCC(=O)O)NC(=O)[C@@H](Cc2ccc(O)cc2)NC(=O)c2ccc(F)nc2)C(=O)N2C[C@H](O)C[C@H]2C(=O)N[C@@H](Cc2ccc(O)c(Cl)c2)C(=O)NCC(=O)N[C@@H](CC(C)C)C(=O)N1)C(=O)N[C@H](CC(C)C)C(N)=O [Compound 3, -y-e-C-Hyp-Y(3-Cl)-G-L-C-H-I-1-] ({Nicotinoyl(6-F)}-[dY][dE]C[Hyp][Tyr(3-Cl)]GLCHI[dL]-NH2; disulfide 3-8) | 140 nM | < 600 nM | –
10 | -Y-h-C-Hyp-Y(3-Cl)-G-L-C-Y-I-Q- ({Nicotinoyl(6-F)}-Y[dH]C[Hyp][Tyr(3-Cl)]GLCYIQ-NH2; disulfide 3-8; not fully specified; printed as -Y-h-C-Hyp-Y(3-Cl)-G-L-C-Y-I-Q-) [Compound 15, N-terminal modified peptide (F is fluorine), C-terminal amide] | – | – | Ki [1]: No
11 | CC[C@H](C)[C@H](NC(=O)[C@H](Cc1ccc(O)cc1)NC(=O)[C@@H]1CSSC[C@H](NC(=O)[C@@H](CCC(=O)O)NC(=O)[C@@H](Cc2ccc(O)cc2)NC(=O)c2ccc(F)nc2)C(=O)N2C[C@H](O)C[C@H]2C(=O)N[C@@H](Cc2ccc(O)c(Cl)c2)C(=O)NCC(=O)N[C@@H](CC(C)C)C(=O)N1)C(=O)N[C@H](CC(C)C)C(N)=O [Compound 9, -y-e-C-Hyp-Y(3-Cl)-G-L-C-Y-I-1-] ({Nicotinoyl(6-F)}-[dY][dE]C[Hyp][Tyr(3-Cl)]GLCYI[dL]-NH2; disulfide 3-8) | 730 nM | – | –
12 | CC[C@H](C)[C@H](NC(=O)[C@H](Cc1c[nH]cn1)NC(=O)[C@@H]1CSSC[C@H](NC(=O)[C@@H](CCC(=O)O)NC(=O)[C@H](Cc2ccc(O)cc2)NC(=O)c2ccc(F)nc2)C(=O)N2C[C@H](O)C[C@H]2C(=O)N[C@@H](Cc2ccc(O)c(Cl)c2)C(=O)NCC(=O)N[C@@H](CC(C)C)C(=O)N1)C(=O)N[C@H](CC(C)C)C(N)=O [Compound 8, -Y-e-C-Hyp-Y(3-Cl)-G-L-C-H-I-1-] ({Nicotinoyl(6-F)}-Y[dE]C[Hyp][Tyr(3-Cl)]GLCHI[dL]-NH2; disulfide 3-8) | 640 nM | – | –
13 | {Nicotinoyl(6-F)}-Y[dE]C[Hyp][Tyr(3-Cl)]GLCYI[dL]-NH2 (disulfide 3-8; SMILES CC[C@H](C)[C@H](NC(=O)[C@H](Cc1ccc(O)cc1)NC(=O)[C@@H]1CSSC[C@H](NC(=O)[C@@H](CCC(=O)O)NC(=O)[C@H](Cc2ccc(O)cc2)NC(=O)c2ccc(F)nc2)C(=O)N2C[C@H](O)C[C@H]2C(=O)N[C@@H](Cc2ccc(O)c(Cl)c2)C(=O)NCC(=O)N[C@@H](CC(C)C)C(=O)N1)C(=O)N[C@H](CC(C)C)C(N)=O) [Compound 10] | – | – | Ki [2]: 950 nM
